Like-named read-outs stand apart in the source and are kept apart here.
Experiments:
[1] = target: WT EGFR (Homo sapiens (Human), UniProt P00533); test: Kinase inhibition assay (HTRF Kinase TK), WT EGFR; format: biochemical
Excerpt: (§1) WT EGFR (Carna, Cat. No 08-115), EGFR[L858R] (Carna, Cat. No 08-502), EGFR[L858R/T790M] (Carna, Cat. No 08-510), ATP (Sigma, Cat. No A7699-1G), DMSO (Sigma, Cat. No D2650), 96-well plate (Corning, Cat. No 3365), 384-well plate (Greiner, Cat. No 784076). HTRF Kinase TK Kit (Cisbio. Cat. No 62TK0PEJ), erlotinib (Selleckchem, Cat. No S7787), EGFR[d746-750] (Life Technologies, Cat. No PV6178), 5× kinase buffer A (Life Technologies, Cat. No PV3186), kinase tracer 199 (Life Technologies, Cat. No PV5830), LanthaScreen® Eu-anti-GST antibody (Life Technologies, Cat. No PV5594).
(§2) Formulation of compound: The test compound was dissolved in DMSO to prepare a 20 mM stock solution. The stock solution was then serially diluted 3-fold in DMSO to obtain ten concentrations. After the compound was added, a 10-fold dilution was performed with buffer.
(§3) WT EGFR and EGFR[L858R/T790M] kinase detection: In 5× kinase buffer A, WT EGFR or EGFR[L858R/T790M] kinase was mixed with different concentrations of compounds prepared by pre-dilution for 10 minutes. Each concentration was tested in duplicate. The corresponding substrate and ATP were added, and reaction was performed at room temperature for 20 minutes (negative and positive controls were provided: the negative control was a blank control, and the positive control was erlotinib). After completion of the reaction, detection reagents (reagents in the HTRF Kinase TK kit) were added. After incubating for 30 minutes at room temperature, enzyme activity in the presence of various concentrations of the compounds of the present disclosure was determined by Evnvision microplate reader, and inhibitory activity of different concentrations of the compounds on enzyme activity was calculated. The inhibitory activity of different concentrations of the compounds on enzyme activity was then fitted by Graphpad 5.0 software according to the four-parameter equation, and the IC50 value was calculated.

[2] = system: skin cancer cell A431; test: Cytotoxicity assay (MTS cell viability), A431; format: cell-based; details: Homo sapiens, A-431, 72 hours
Procedure: (§4) In vitro anti-proliferation activity of the compound of the present disclosure on three tumor cell lines cultured in vitro was detected by the MTS method.
(§5) Cell lines: skin cancer cell A431 (purchased from the American Type Culture Collection (ATCC)); lung cancer cell NCI-H1975 (purchased from the American Type Culture Collection (ATCC)) and HCC827 (purchased from the American Type Culture Collection (ATCC)); all were cultured with RPM11640 medium containing 10% fetal bovine serum, 100 U/ml penicillin, and […] streptomycin.
(§6) Reagents and materials: RPMI-1640 (GIBCO, Cat. No A10491-01); fetal bovine serum (GIBCO, Cat. No 10099141): 0.25% trypsin-EDTA (GIBCO, Cat. No 25200); penicillin-streptomycin; liquid (GIBCO, Cat. No 15140-122); DMSO (Sigma, Cat. No D2650); MTS Assay Kit (Promega, Cat. No G3581), 96-well plate (Corning, Cat. No 3365).
as §2, with “solution, which was stored at −20° C.” for “solution.”, “4-fold” for “10-fold”, “cell culture medium.” for “buffer.”
(§7) MTS cell viability assay: cells in logarithmic growth phase was digested with 0.25% trypsin-EDTA, and 150 μl of the cells was inoculated in a 96-well plate at an optimized density. After 24 hours, the compound diluted 4 fold in the medium was added, 50 μl/well (generally ten concentrations were selected: 100, 33.3, 11.1, 3.70, 1.23, 0.412, 0.137, 0.0457, 0.0152, 0.00508 μM). The same volume of 0.5% DMSO was added in wells as a control. After the cells were cultured for another 72 hours, the cell viability was detected by MTS.
(§8) Specific procedure: The cells were adhered. The medium was discarded. A mixture containing 20 μL MTS and 100 μl medium was added to each well. After incubating for 1-4 hours in an incubator, OD490 was detected, with the OD650 value as a reference. A dose-effect curve was made using GraphPad Prism software and IC50 was calculated.

[3] = target: EGFR[L858R/T790M] (Homo sapiens (Human), UniProt P00533, L858R/T790M); test: Kinase inhibition assay (HTRF Kinase TK), EGFR[L858R/T790M]; format: biochemical
Excerpt: as §1, §2, §3

[4] = system: lung cancer cell NCI-H1975 (L858R/T790M); test: Cytotoxicity assay (MTS cell viability), NCI-H1975; format: cell-based; details: Homo sapiens, 72 hours
Procedure: as §4, §5, §6
as §2, with “solution, which was stored at −20° C.” for “solution.”, “4-fold” for “10-fold”, “cell culture medium.” for “buffer.”
as §7, §8

[5] = Pharmacokinetic assay in rats; format: in vivo, Sprague-Dawley rats; details: rat; for AUC(0-t) / Cmax / Tmax / half-life / AUC(0-inf) / MRT inf / bioavailability: male, Sprague-Dawley, plasma; for AUC(0-inf): read-out: AUCINF_pred; for MRT inf: read-out: MRTINF_pred; for bioavailability: PO 10 mg/kg vs IV 0.5 mg/kg
Procedure: Six male Sprague-Dawley rats (7-8 weeks old, and weighing about 210 g) were divided into 2 groups, 3 rats in each group. A single dose of compounds (10 mg/kg orally) was administered intravenously or orally to compare their pharmacokinetics.
The rats were fed with standard feed and water. Fasting was started 16 hours before the assay. The drug was dissolved in PEG400 and dimethyl sulfoxide. Blood was collected from the orbit. The time points for blood collection were 0.083 hours, 0.25 hours, 0.5 hours, 1 hour, 2 hours, 4 hours, 6 hours, 8 hours, 12 hours and 24 hours after administration.
The rats were briefly anesthetized after inhaling diethyl ether, and 300 μL of blood sample was collected from the orbit into a test tube containing 30 μL of 1% heparin salt solution. Before use, the test tube was oven dried overnight at 60° C. After the blood sample was collected at the last time point, the rats were anesthetized with diethyl ether and then sacrificed.
Immediately after the blood sample was collected, the test tube was gently inverted at least 5 times to ensure sufficient mixing, and then placed on ice. The blood sample was centrifuged at 5000 rpm at 4° C. for 5 minutes to separate the plasma from the red blood cells. 100 μL of plasma was aspirated into a clean plastic centrifuge tube with a pipette, and the name of the compound and time point were marked. The plasma was stored at −80° C. before analysis. The concentration of the compound of the present disclosure in plasma was determined by LC-MS/MS. The pharmacokinetic parameters were calculated based on the blood drug concentration of each animal at different time points.

[6] = system: lung cancer cell HCC827 (Del19); test: Cytotoxicity assay (MTS cell viability), HCC827; format: cell-based; details: Homo sapiens, 72 hours
Procedure: as §4, §5, §6
as §2, with “solution, which was stored at −20° C.” for “solution.”, “4-fold” for “10-fold”, “cell culture medium.” for “buffer.”
as §7, §8

Sequence of WT EGFR (P00533 25-1210): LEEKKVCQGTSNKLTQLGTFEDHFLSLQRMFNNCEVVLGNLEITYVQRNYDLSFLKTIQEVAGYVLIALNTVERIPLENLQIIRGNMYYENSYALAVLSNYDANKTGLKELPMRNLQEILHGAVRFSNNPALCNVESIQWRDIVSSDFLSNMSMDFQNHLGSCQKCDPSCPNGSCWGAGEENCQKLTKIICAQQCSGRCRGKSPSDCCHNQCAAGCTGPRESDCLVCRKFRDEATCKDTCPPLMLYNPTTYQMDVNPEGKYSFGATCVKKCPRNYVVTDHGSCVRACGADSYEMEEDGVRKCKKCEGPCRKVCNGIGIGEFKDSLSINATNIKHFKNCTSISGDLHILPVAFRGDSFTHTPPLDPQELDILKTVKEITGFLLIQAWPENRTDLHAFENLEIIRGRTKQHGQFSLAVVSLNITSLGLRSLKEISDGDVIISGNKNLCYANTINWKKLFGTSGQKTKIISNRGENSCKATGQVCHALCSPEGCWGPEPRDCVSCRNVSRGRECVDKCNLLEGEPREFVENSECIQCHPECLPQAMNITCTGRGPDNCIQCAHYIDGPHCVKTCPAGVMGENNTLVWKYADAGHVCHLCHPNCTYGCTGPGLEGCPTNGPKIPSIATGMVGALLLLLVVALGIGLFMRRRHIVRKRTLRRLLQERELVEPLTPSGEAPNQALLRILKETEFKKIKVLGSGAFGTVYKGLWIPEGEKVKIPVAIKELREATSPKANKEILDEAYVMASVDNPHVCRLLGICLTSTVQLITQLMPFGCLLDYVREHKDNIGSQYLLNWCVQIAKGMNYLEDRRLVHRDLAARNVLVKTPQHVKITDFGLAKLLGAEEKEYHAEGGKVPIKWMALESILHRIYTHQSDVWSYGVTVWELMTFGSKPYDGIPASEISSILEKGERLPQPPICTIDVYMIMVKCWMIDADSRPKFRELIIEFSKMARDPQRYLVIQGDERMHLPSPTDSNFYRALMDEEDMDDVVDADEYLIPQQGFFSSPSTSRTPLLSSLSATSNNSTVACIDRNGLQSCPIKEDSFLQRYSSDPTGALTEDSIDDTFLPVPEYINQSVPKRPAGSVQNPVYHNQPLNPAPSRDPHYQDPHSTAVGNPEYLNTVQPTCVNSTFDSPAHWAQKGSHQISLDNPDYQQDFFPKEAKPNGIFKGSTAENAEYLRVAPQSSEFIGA
Sequence of EGFR[L858R/T790M] (P00533 25-1210 T790M/L858R): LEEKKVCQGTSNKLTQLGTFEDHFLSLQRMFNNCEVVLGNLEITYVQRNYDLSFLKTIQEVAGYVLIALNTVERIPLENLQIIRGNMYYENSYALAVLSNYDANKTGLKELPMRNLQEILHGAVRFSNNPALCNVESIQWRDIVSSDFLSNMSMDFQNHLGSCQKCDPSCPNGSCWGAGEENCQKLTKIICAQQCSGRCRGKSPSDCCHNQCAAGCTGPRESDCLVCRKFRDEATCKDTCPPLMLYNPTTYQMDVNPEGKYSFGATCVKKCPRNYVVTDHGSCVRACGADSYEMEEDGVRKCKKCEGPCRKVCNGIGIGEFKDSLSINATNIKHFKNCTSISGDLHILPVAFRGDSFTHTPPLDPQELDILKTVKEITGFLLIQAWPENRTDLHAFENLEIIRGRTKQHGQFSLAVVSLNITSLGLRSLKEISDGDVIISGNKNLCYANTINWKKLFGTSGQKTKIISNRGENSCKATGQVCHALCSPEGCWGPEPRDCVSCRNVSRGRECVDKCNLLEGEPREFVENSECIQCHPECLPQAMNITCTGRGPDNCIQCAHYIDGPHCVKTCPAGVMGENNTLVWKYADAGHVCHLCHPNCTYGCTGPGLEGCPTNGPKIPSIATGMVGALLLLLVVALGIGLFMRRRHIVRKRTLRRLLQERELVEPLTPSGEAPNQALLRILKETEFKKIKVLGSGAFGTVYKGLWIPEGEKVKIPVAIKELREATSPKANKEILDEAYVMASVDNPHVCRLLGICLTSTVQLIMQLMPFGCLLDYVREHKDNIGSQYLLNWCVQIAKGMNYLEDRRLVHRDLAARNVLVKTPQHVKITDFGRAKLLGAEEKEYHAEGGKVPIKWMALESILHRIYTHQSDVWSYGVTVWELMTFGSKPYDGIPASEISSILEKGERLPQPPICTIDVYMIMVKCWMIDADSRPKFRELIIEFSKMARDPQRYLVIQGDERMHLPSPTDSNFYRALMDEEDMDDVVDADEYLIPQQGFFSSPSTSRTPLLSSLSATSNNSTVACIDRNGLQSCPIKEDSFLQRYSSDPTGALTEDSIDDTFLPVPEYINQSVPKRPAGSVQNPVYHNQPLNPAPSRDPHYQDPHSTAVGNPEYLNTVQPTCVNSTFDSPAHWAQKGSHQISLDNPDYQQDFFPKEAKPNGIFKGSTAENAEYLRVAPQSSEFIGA

| SMILES | IC50 [1] [nM] | IC50 [2] [nM] | IC50 [3] [nM] | IC50 [4] [nM] | AUC(0-t) ([5]; IV 0.5 mg/kg) [ng·h/mL] | Cmax ([5]; IV 0.5 mg/kg) [ng/mL] | Tmax ([5]; IV 0.5 mg/kg) [h] | half-life ([5]; IV 0.5 mg/kg) [h] | AUC(0-inf) ([5]; IV 0.5 mg/kg) [ng·h/mL] | MRT inf ([5]; IV 0.5 mg/kg) [h] | AUC(0-t) ([5]; PO 10 mg/kg) [ng·h/mL] | Cmax ([5]; PO 10 mg/kg) [ng/mL] | Tmax ([5]; PO 10 mg/kg) [h] | half-life ([5]; PO 10 mg/kg) [h] | bioavailability [5] [%] | Cl_pred ([5]; IV 0.5 mg/kg) [mL/min/kg] | Vz_pred ([5]; IV 0.5 mg/kg) [L/kg] | Cl_pred ([5]; PO 10 mg/kg) [mL/min/kg] | Vz_pred ([5]; PO 10 mg/kg) [L/kg] | IC50 [6] [nM] | further results |
| --- | --- | --- | --- | --- | --- | --- | --- | --- | --- | --- | --- | --- | --- | --- | --- | --- | --- | --- | --- | --- | --- |
| C=CC(=O)Nc1cc(Nc2nccc(-n3cc(CN(C)C)c(-c4ccccc4)n3)n2)c(OC)nc1N1CCOCC1 [Compound T-1, N-(5-((4-(4-((dimethylamino)methyl)-3-phenyl-1H-pyrazol-1-yl)pyrimidin-2-yl)amino)-6-methoxy-2-morpholinopyridin-3-yl)acrylamide] | 1.29 | 260 | 0.4 | 2.43 | 328 | 246 | 0.08 | 2.8 | 341 | 2.32 | 1430 | 91.1 | 5.33 | 8.69 | 21.8 | 24.5 | 5.94 | 97.5 | 73.39 | 3.64 | AUC(0-inf) ([5]; PO 10 mg/kg): 1790 ng·h/mL; MRT inf ([5]; PO 10 mg/kg): 9.11 h |
| C=CC(=O)Nc1cc(Nc2ncc(F)c(-n3cc(CN(C)C)c(-c4ccccc4)n3)n2)c(OC)nc1N1CCOCC1 [Compound T-2, N-(5-((4-(4-((dimethylamino)methyl)-3-phenyl-1H-pyrazol-1-yl)-5-fluoropyrimidin-2-yl)amino)-6-methoxy-2-morpholinopyridin-3-yl) acrylamide] | 3.33 | 1410 | 0.44 | 9.51 | 284 | 268 | 0.08 | 2.17 | 289 | 1.95 | 753 | 69.3 | 2.33 | 6.4 | 25.1 | 29.2 | 5.49 | 200.8 | 111.2 | 8.25 | AUC(0-inf) ([5]; PO 10 mg/kg): 840 ng·h/mL; MRT inf ([5]; PO 10 mg/kg): 7.67 h |
| C=CC(=O)Nc1cc(Nc2ncc(C)c(-n3cc(CN(C)C)c(-c4ccccc4)n3)n2)c(OC)nc1N1CCOCC1 [Compound T-3, N-(5-((4-(4-((dimethylamino)methyl)-3-phenyl-H-pyrazol-1-yl)-5-methylpyrimidin-2-yl)amino)-6-methoxy-2-morpholinopyridin-3-yl)acrylamide] | 6.29 | 342 | 0.6 | 21.9 | – | – | – | – | – | – | – | – | – | – | – | – | – | – | – | 12.1 | – |
| C=CC(=O)Nc1cc(Nc2nccc(-n3cc(CN(C)C)c(-c4ccccc4)n3)n2)c(OC(C)C)nc1N1CCOCC1 [Compound T-4, N-(5-((4-(4-((dimethylamino)methyl)-3-phenyl-1H-pyrazol-1-yl)-pyrimidin-2-yl)amino)-6-isopropoxy-2-morpholinopyridin-3-yl)acrylamide] | 1.98 | 130 | 0.81 | 13.2 | – | – | – | – | – | – | – | – | – | – | – | – | – | – | – | 5.06 | – |
| C=CC(=O)Nc1cc(Nc2nccc(-c3cc(CN(C)C)n(-c4ccccc4)n3)n2)c(OC)cc1N1CCOCC1 [Compound T-7, N-(5-((4-(5-((dimethylamino)methyl)-1-phenyl-1H-pyrazol-3-yl)pyrimidin-2-yl)amino)-4-methoxy-2-morpholinophenyl)acrylamide] | 0.55 | 226 | 1.15 | 23.5 | – | – | – | – | – | – | – | – | – | – | – | – | – | – | – | 4.44 | – |
| C=CC(=O)Nc1cc(Nc2nccc(-n3cc(CN(C)C)c(-c4ccccc4)n3)n2)c(OC)cc1N1CCOCC1 [YH25448, reference compound] | – | – | – | – | – | – | – | – | – | – | – | – | – | – | – | 17.5 | 5.73 | 94.2 | 61.56 | – | – |

— patent US12312329B2, “Aminopyrimidine compound used for inhibiting activity of protein kinase” (Shenzhen TargetRx, Inc., priority 2018, dated 2025)
